Experimental data taken from US12251373B2, “Compounds and methods of treating retinal degeneration” (CASE WESTERN RESERVE UNIVERSITY, priority 2017, dated 2025).

Assays:
[1] = test system: C57BL/6 mice; test: Bw measurements, long-term toxicity by daily i.p. injections; format: in vivo; conditions: 100 or 200 mg kg−1 bw daily i.p. Day 14 to 38, vs DMSO
Description: To estimate the long-term toxicity of YC-001 in mice, we administered YC-001 to C57BL/6 mice by daily i.p. injections from Day 14 to 38 after birth with one of two doses, either 100 mg kg^−1 or 200 mg kg^−1 bw. Equivalent volumes of DMSO were injected into control groups. Bws of treated mice were measured daily. Each dosage group contained 3 mice including males and females.

[2] = target: T1, rod opsin (Bos taurus, UniProt P02699); test: Raman spectroscopy of rod opsin crystal soaked with compound; format: binding, bovine; conditions: Raman difference spectrum, FIG. 4f
T1 construct: ROS membranes were isolated from bovine retinas under dim red light; from tissue; host or cells: bovine retina rod outer segment (ROS) membranes, bleached with hydroxylamine
Description: Bleached ROS membranes bearing opsin were solubilized with either 20 mM BTP, pH 7.5, or 50 mM MES, pH 6.4, together with 130 mM NaCl, 1 mM MgCl2, 10% sucrose, and 1% n-octyl-β-D-glucopyranoside (OG) for 1 h at 4° C. Insoluble debris was removed by centrifugation at 16,000 g for 5 min at 4° C. Crystallization screens were performed by the sparse matrix crystallization method based upon previously published crystallization conditions for rhodopsin and opsin. Each hanging drop was prepared by mixing equal volumes of solubilized opsin and a reservoir solution containing 3.0-3.6 M ammonium sulfate in 0.05-0.1 M sodium acetate buffer, pH 5.2-5.6. Crystals appeared within 2-5 days at 4° C. and were analyzed directly by Raman spectroscopy.
Here, we used Raman microscopy to test if YC-001 binds rod opsin in a single crystal. A rod opsin crystal was transferred into 4.5 μL of fresh reservoir solution on a siliconized glass coverslip and transferred into a hanging drop crystallization tray where the well contained 1 mL of the same solution. An 80 mW, 647.1 nm Kr^+ laser beam (Innova 70 C, Coherent, Palo Alto, CA, USA) was focused on the rod opsin crystal with a 20× objective. The Raman spectrum of the rod opsin crystal was accumulated over 100×1 s. […]

[3] = Metabolic stability in human liver microsomes; format: in vitro ADME; conditions: 5 μM, with NADPH, vs verapamil
Description: A standard metabolic stability assay was performed in the presence of mouse or human liver microsomes. YC-001 (5 μM) was incubated with the microsomes (0.125 mg mL^−1) resuspended in 0.2 mL of PBS buffer, pH 7.4 composed of 10 mM Na2HPO4, 1.8 mM KH2PO4, 137 mM NaCl, and 2.7 mM KCl. The enzymatic reaction to produce oxidized metabolites was initiated by addition of NADPH (1 mM). Samples were incubated at 37° C. for up to 240 min. Incubation without the cofactor was conducted in parallel to assess NADPH-independent clearance. The reactions were stopped with 0.2 mL of methanol followed by 0.3 mL chloroform. Residual YC-001 was extracted by vigorous shaking. To facilitate phase separation, the samples were spun down for 2 min, 15,000×g. The chloroform fraction was collected, dried down, and the extracted organic compounds were redissolved in 0.2 mL of methanol. To quantify YC-001, the samples were injected onto an Eclipse XDB-C18 column (4.6×150 mm, 5 μm) (Agilent Technologies) equilibrated with solvent composed of 30% acetonitrile in water (v/v), and 0.1% formic acid. YC-001 was eluted in a gradient of acetonitrile in water (30-100%) developed within 15 min at a flow rate of 1 mL min^−1, detected at 350 nm, and quantified by correlating peak areas with known quantities of an original synthetic standard. […]

T1 sequence (P02699 whole entry): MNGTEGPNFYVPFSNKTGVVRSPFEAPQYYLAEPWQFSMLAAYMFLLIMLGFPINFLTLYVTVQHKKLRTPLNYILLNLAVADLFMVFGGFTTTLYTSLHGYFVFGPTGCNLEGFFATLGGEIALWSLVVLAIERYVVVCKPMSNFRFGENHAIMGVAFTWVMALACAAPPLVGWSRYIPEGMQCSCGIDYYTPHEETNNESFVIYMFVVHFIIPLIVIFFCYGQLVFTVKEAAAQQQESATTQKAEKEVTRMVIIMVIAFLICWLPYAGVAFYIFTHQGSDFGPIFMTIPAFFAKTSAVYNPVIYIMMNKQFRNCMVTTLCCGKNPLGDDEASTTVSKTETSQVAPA

O=C1OCC(c2ccc(Cl)s2)=C1c1cccs1 [YC-001]
behavioral or bw growth changes [1]: no obvious behavioral or bw growth changes
mode of binding to rod opsin [2]: non-covalent binding
initial clearance in liver microsomes [3]: even higher initial clearance
